The results in this text go back to US12534748B2, “Engineered beta-subunit of tryptophan synthase for production of non-canonical amino acids” (California Institute of Technology, priority 2015, dated 2026).

For assay [1], the target named is T1, Pyrococcus furiosus TrpB variant PfTrpB^2G9 (T292S), SEQ ID NO: 10 (Pyrococcus furiosus, UniProt Q8U093, T292S).
T1 sequence (Q8U093 with tags, fused parts or gaps T292S): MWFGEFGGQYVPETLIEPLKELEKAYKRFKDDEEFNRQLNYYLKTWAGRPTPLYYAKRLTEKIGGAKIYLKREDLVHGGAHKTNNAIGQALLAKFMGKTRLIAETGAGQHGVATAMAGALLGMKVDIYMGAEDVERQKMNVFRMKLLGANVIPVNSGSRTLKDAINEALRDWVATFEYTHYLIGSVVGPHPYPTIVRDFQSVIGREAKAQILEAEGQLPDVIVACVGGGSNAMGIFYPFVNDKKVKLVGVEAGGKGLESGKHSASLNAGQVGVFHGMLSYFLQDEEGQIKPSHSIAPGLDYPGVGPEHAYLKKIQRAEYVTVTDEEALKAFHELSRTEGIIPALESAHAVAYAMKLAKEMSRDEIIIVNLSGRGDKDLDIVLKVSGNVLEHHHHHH
Description: Tryptophan formation from L-serine and indole, kinetics of PfTrpB^2G9. The assay is classed as biochemical. The method, then: (§1) Cloning, Expression, and Purification of PfTrpA and PfTrpB. The genes encoding PfTrpB (UNIPROT ID Q8U093) and PfTrpA (UNIPROT ID Q8U094) were obtained as gBlocks and cloned into pET22(b)+ for expression in E. coli BL21 E. cloni EXPRESS cells (Lucigen). Heterologous protein expression of PfTrpA and PfTrpB was performed in Terrific Broth with 100 μg/mL ampicillin (TBamp) and induced with 500 mM IPTG (final concentration 1 mM). PfTrpB was purified via a HisTrap HP column. PfTrpA was purified via a Q HP HiTrap column (flow-through), followed by ammonium sulfate precipitation, and hydrophobic interaction chromatography on a phenyl Sepharose HP HiTrap column (FIG. 3).
(§2) Kinetics and UV-Vis Spectroscopy.

Assay [2] has as its target T2, Pyrococcus furiosus TrpB variant PfTrpB^0B2 (P12L, E17G, I68V, T292S, F274S, T321A), SEQ ID NO: 12 (Pyrococcus furiosus, UniProt Q8U093, E17G/F274S/I68V/P12L/T292S/T321A).
T2 sequence (Q8U093 with tags, fused parts or gaps P12L/E17G/I68V/F274S/T292S/T321A): T1 sequence (Q8U093 with tags, fused parts or gaps T292S) with P12L, E17G, I68V, F274S, T321A
Description: Tryptophan formation from L-serine and indole, kinetics of PfTrpB^0B2. The method, then: as §1, §2
PfTrpB^4D11 served as template for a final round of random mutagenesis, for which 1,144 clones were screened.

In assay [3] the target is T3, Pyrococcus furiosus TrpB variant M144T N166D (Table 6 prints N166T), SEQ ID NO: 20 (Pyrococcus furiosus, UniProt Q8U093, M144T/N166D).
T3 sequence (Q8U093 with tags, fused parts or gaps M144T/N166D): T1 sequence (Q8U093 with tags, fused parts or gaps T292S) with M144T, N166D, S292T
In words: Tryptophan formation from L-serine and indole, kinetics of PfTrpB double mutant.
Description: Data were collected between 550 and 250 nm on a UV1800 Shimadzu spectrophotometer (Shimadzu) using 0.25-20 μM of enzyme in 200 mM potassium phosphate (pH 8.0) in a quartz cuvette. Samples were incubated at 75° C. for >3 min to ensure a stable temperature was reached. PfTrpB activity (kcat) was measured by monitoring tryptophan formation at 290 nm using Δe290=1.89 mM^−1·cm^−1.

Positions count from the first letter of the chain named.

Broadly, the kcat is the maximal rate divided by the concentration of active sites. The term Km denotes the substrate concentration at which the rate is half of its maximum.

Turning to `c1ccc2[nH]ccc2c1` [indole], the kcat in assay [1] (75° C.) amounted to 1.1 s⁻¹; in assay [2] (75° C.) it was 2.9 s⁻¹; in assay [3] (75° C.) it was 0.83 s⁻¹. In assay [1] (compared with PfTrpB), this compound gave an increase in kcat of 3.5 fold. Moreover, the Michaelis-Menten constant (Km) in assay [1] (read-out: KM, indole, 75° C.) is 14 µM. Besides, the kcat increase in assay [2] (relative to PfTrpB) was 9.4 fold; in assay [3] (M144T and N166D in PfTrpB) it was “at least 2 fold”.
